From paper PMC9254149 (RSC Advances, 2022) come the findings set out here.

Type in all cases: cell-based, human
In one series the test system is HepG2 cells. Kind of series: Cell viability by CCK-8 method. As to conditions: Homo sapiens, HepG2, 24 h, read-out: IC50 (cell viability).
Series [1] can be described thus: Cell viability by CCK-8 method. As to conditions: human, HepG2 cells. (Tetrazolium assays rely on reduction of a dye to a coloured formazan, in cell work by metabolically active cells.)
A further series deals with IR-HepG2 cells. Kind of series: Glucose consumption in IR-HepG2 cells. As to conditions: 24 h.

One may read the IC50 as the concentration needed to halve the response being measured. By viability is commonly meant a read-out of living cells in per cent, often relative to untreated cells. Higher therefore signals less harm to the cells.

For `CC(C)=CCCC(C)(O)C(O)CCC(C)CCO` (stereo not drawn) [Compound 3, 2,6,10-trimethyl-6,7,12-trihydroxy-dodec-2-ene], in the series with HepG2 cells, the half-inhibitory concentration (IC50) came out at 34 µM. In series [1], this compound gave a viability at 24 h, 10 µM of 94.8 ± 1.94%; a viability at 24 h, 20 µM of 83.5 ± 3.68%; a viability at 24 h, 30 µM of 60.3 ± 3.33%; a viability at 24 h, 40 µM of 36.3 ± 1.62%. In series [1], this compound came in with a viability at 24 h, 50 µM of 33.4 ± 1.9%. In the series with IR-HepG2 cells (2.5 μM), the Glucose consumption came to 2.06 ± 1.27 mM. The compound also returned a Glucose consumption in the series on IR-HepG2 cells (5.0 μM) of 2.43 ± 0.67 mM. The compound further showed a Glucose consumption in the series on IR-HepG2 cells (10.0 μM) of 2.66 ± 0.56 mM. In the series with IR-HepG2 cells (12.5 μM), this compound yielded a Glucose consumption of 2.86 ± 0.71 mM. In the series with IR-HepG2 cells (15 μM), this compound displayed a Glucose consumption of 2.44 ± 0.60 mM.

On to `C[C@@H]1O[C@@H](O[C@H]2[C@H](O[C@H]3CC[C@@]4(C)[C@@H](CC[C@]5(C)[C@@H]4CC=C4[C@@H]6CC(C)(C)CC[C@]6(C(=O)O)CC[C@]45C)[C@]3(C)CO)OC[C@H](O)[C@@H]2O)[C@H](O)[C@H](O)[C@H]1O` [Compound 5, α-hederin], for which the IC50 with HepG2 cells was greater than 50 µM. In series [1], this compound displayed a viability at 24 h, 10 µM of 98.57 ± 0.57%; a viability at 24 h, 20 µM of 93.4 ± 1.23%; a viability at 24 h, 30 µM of 89.4 ± 1.16%; a viability at 24 h, 40 µM of 76.1 ± 1.73%. This compound also yielded a viability at 24 h, 50 µM in series [1] of 73.3 ± 2.58%. Also, the Glucose consumption in the series with IR-HepG2 cells (2.5 μM) is on record as 6.31 ± 0.96 mM. Moreover, the Glucose consumption in the series on IR-HepG2 cells (10.0 μM) came to 7.75 ± 0.84 mM. The Glucose consumption with IR-HepG2 cells (12.5 μM) worked out at 8.97 ± 0.37 mM. Further, the Glucose consumption in the series on IR-HepG2 cells (15 μM) was found to be 9.99 ± 0.95 mM.
